These results are taken from patent US20140179664A1, “Heterocyclyl Pyrimidine Analogues As JAK Inhibitors” (Cellzome Limited, priority 2011, published 2014).

The test system of the test is STAT5 phosphorylation downstream of JAK3 in human YT cells. The test can be described thus: pSTAT5 cell assay (IL-2 stimulated YT cells, AlphaScreen). In kind it is cell-based. The note with it: IL-2 stimulation, read-out: Inhibition values (IC50) pSTAT5. The source says:
STAT5 phosphorylation represents one of the proximal events in the signalling cascade downstream of JAK3 activation. Therefore STAT5 phosphorylation is an appropriate readout to assess the mechanistic effect of JAK3 inhibition. Stimulation of human YT cells, an NK-like cell line, with interleukin-2 (IL-2) results in phosphorylation of STAT5 at tyrosine residue 694 (Tyr694) that can be quantitatively measured by immunodetection with specific antibodies and an appropriate detection method, in this case AlphaScreen assay technology.
Human YT cells were grown in RPMI medium (Lonza, BE12-167) with 2 mM L-Glutamine (Invitrogen, 25030-024) and 10% heat-inactivated FBS (Invitrogen, 10106-169) and kept in a humidified incubator (37° C., 5% CO2). Cells were harvested by centrifugation, washed once with HBSS (Invitrogen, 14180-046), resuspended in HBSS at 1.5×10^6 cells/ml and 0.9×10^4 cells were seeded in 6 μl per well in a 96 well White plate (PerkinElmer, 6005569).
Test compounds were dissolved in DMSO and a 1:3 dilution series (9 steps) was prepared. To generate a dose response curve, 3 μl of fourfold concentrated compound in 4% DMSO/HBSS were added to each cell sample in the 96 well plate resulting in a final DMSO concentration of 1% DMSO. Cells were incubated for one hour in a humidified incubator (37° C., 5% CO2). To each well 3 μl of a fourfold concentrated IL-2 solution (Recombinant human IL-2, Peprotech 200-02; 120 nM solution in HBSS) was added and incubated for 30 minutes at room temperature. Cells were lysed by adding 3 μl of 5× lysis buffer (SureFire lysis buffer; Perkin Elmer, TGRS5S10K) and incubated for 10 minutes at room temperature with gentle shaking
For signal detection by AlphaScreen® technology the SureFire phospho-STAT5 (Tyr694/Tyr699) kit was used according to instructions provided by the manufacturer (Perkin Elmer, TGRS5S10K). Acceptor beads were added as recommended by the manufacturer (Reactivation buffer/Activation buffer/Acceptor beads at a ratio of 40:10:1) and incubated at room temperature for 1.5 hours with gentle shaking Then donor beads were added as recommended (Dilution buffer/Donor beads at a ratio of 20:1) and incubated at room temperature for 1.5 hours with gentle shaking Plates were read on an Envision instrument (Perkin Elmer) with the AlphaScreen protocol. Data were analysed in BioAssay using the nonlinear regression for a sigmoidal dose-response with a variable slope.

On to `NC(=O)Cn1cc(Nc2ncc(Cl)c(N[C@H](CO)c3cccc(F)c3)n2)cn1` [Compound 87], for which the IC50 (as a rule, the concentration that gives 50% inhibition) is below 250 nM.
